The values below come from patent US20160310454A1, “LIVER X RECEPTOR AGONISTS IN THE TREATMENT OF EMPHYSEMA” (priority 2013, published 2016).

This assay has as its system mouse macrophages (bone marrow derived, ABCA1 fl/fl WT) treated with 5% CSE. Kind of assay: Mouse macrophages treated with 5% CSE with or without LXR agonist (RT-PCR, Western blot, zymography). It counts as cell-based. How it is done:
To prepare cigarette (CSE), the smoke from one cigarette (1.1 mg of nicotine, 15 mg of tar) was passed through 25 mls of phosphate buffered saline (PBS) (Mercer et al., 2004). The pH of the extracted solution was adjusted to 7.4 and then filtered (Mercer et al., 2004). CSE was added to the media at concentrations up to 5% (vol/vol) (Mercer et al., 2004).
In these experiments both mouse peritoneal and mouse bone marrow derived macrophages (BMdM) were utilized. Mouse peritoneal macrophages were isolated from peritoneal cavities of 3% thioglycolate injected mice on the 5th day from injection. To compare expression of genes in vitro and in vivo peritoneal macrophages were isolated from mice exposed to room air and cigarette smoke. For in vitro analysis cells were seeded on culture plates for 24 h and then treated with CSE. For in vivo analysis cells were collected from peritoneal cavity and mRNA was directly isolated. Mouse BMdMs were obtained from the following mice: ABCA1 fl/fl in a C57/BL6 background. Briefly, mice were first sacrificed by CO2 asphyxiation followed by cervical dislocation. After sacrificing the mouse the legs were amputated and the excess muscle tissue was removed so as to completely expose the femur and tibia, which were cleaned carefully. These samples were left in sterile PBS for the duration of the procedure. The cavity bones were then flushed with 10 ml of PBS using 26G needle. The obtained cells were then counted (usually 100-150 million cells per mouse) and centrifuged for 5 min at 2600 rpm. Hematopoietic cells can be separated by plastic adhesion; therefore the cells were incubated in petri dishes containing DMEM culture media and supplemented with 10% FBS and 1% antibiotics). Non-adherent progenitor cells were then collected after 2 hours of incubation in culture media and then seeded at a concentration of 4 million cells/ml in fresh culture media, supplemented with L-cell conditioned media containing macrophage colony stimulating factor (M-CSF) at a concentration of 20%. Approximately after 7-10 days of plating the cells become fully differentiated into macrophages and were ready for subsequent experiments. After treatment the culture supernatants, proteins, and total RNA were collected for analysis. […]
Total RNA was extracted from specimens of lung tissue 0.3 cm^3 in size with the use of the RNeasy kit (Qiagen, Germantown, Md.) (Goldklang et al., 2012). The RNA was then further processed to obtain cDNA, which was used for Real Time (RT) PCR analysis. TaqMan gene expression assays (Applied Biosystems, Carlsbad, Calif.) were performed to assess gene-transcript levels with the use of an ABI Prism 7900HT Sequence Detection System (Applera, Foster City, Calif.) (Goldklang et al., 2012). The following primers were used to check the respective gene expression: ABCA1 (Hs01059118_m1), ABCG1 (Hs00245154_m1), MMP-9 (Mm00442991_m1), IL-1β (Mm00434227_g1), TNF-α (Mm00443260_g1) and GAPDH (4352932E) from TaqMan Gene Expression Assays, Applied Biosystems, CA. β-actin was used as a control since it is a housekeeping gene.
The lungs of mice (-10 mg) were homogenized in 1 ml of Radioimmunoprecipitation assay (RIPA) buffer, and centrifuged at 14,000 g for 10 min. The protein concentration of each sample was measured using a Bradford reagent. The required amount of each sample was then used for western blot analysis, so that the concentration was equal for all samples. Proteins were first separated on the basis of molecular weight via sodium dodecyl sulphate polyacrylamide gel electrophoresis (SDS-PAGE). The same gel was then transferred onto a nitro cellulose membrane with the help of electric current (or electroblotting) that transfers the protein from polyacrylamide gel to the membrane. This membrane was then incubated in the solution containing primary antibodies, specific for the proteins of interest, ABCA1 and ABCG1, followed by the use of a secondary antibody that allowed the detection of protein by chemiluminescent. […]

SMILES strings stand for the structures. “Also recorded” adds a separate entry of the source.

Take `O=S(=O)(c1ccccc1)N(CC(F)(F)F)c1ccc(C(O)(C(F)(F)F)C(F)(F)F)cc1` [T0901317, N-(2,2,2-trifluoroethyl)-N-[4-[2,2,2-trifluoro-1-hydroxy-1-(trifluoromethyl)ethyl]phenyl]-benzenesulfonamide]: under “5% CSE, LXR agonist 3 μM”, the “Expression of ABCA1 and ABCG1 (mRNA and protein)” value is “maintained at baseline levels”; the “cigarette smoke induced mRNA expression of TLR4/Myd88” value is listed as “inhibited”. The “cigarette smoke induced phosphorylation of JNK and ERK” value (5% CSE, LXR agonist 3 μM, Western blot) is on record as “inhibited”. Also, the “Expression of ABCA1 and ABCG1 (mRNA and protein)” value (5% CSE, LXR agonist 3 μM, listed as LXR agonist) is listed as “re-established”. For the same compound, for the setting “ABCA1 WT macrophages, 5% CSE, LXR agonist 3 μM”, the “CSE induced upregulation of IL-1β and TNFα and downregulation of IL-10 (mRNA)” value was “reversed back to baseline”. Besides, the “mRNA and activity of MMP-9” value (ABCA1 WT macrophages, 5% CSE, LXR agonist 3 μM, gelatin zymography) was “blocked; also recorded: reduced”. For the same compound, the “cigarette smoke-induced pro-inflammatory cytokines and MMP expression and activity” value (mouse macrophages treated with CSE) is reported as “blocked”. Further, the “MMP-9 activity (zymography) and expression, MMP-13 expression and TNFα expression” value (smoke-induced, macrophages) is on record as “decrease”.
